Experimental data: the NIST ThermoML archive (doi:10.1021/je060271a)
± gives the expanded uncertainty stated by the source.

Settings: 343.15 K, Liquid, Vibrating tube method

CCCCCCCC(=O)OCC(COC(=O)CCCCCCC)(COC(=O)CCCCCCC)COC(=O)CCCCCCC [pentaerythritol tetraoctanoate]
Settings	mass density [kg/m3]
2674.6 kPa	928 ± 1.1
2687.8 kPa	928 ± 1.1
2700.8 kPa	928 ± 1.1
2713.8 kPa	927.9 ± 1.1
2729.6 kPa	928.1 ± 1.1
2743.3 kPa	928 ± 1.1
2756.7 kPa	927.9 ± 1.1
2773 kPa	927.9 ± 1.1
2786.3 kPa	928.1 ± 1.1
2800.4 kPa	928 ± 1.1
2814.8 kPa	928.1 ± 1.1
2830 kPa	928.1 ± 1.1
2846.9 kPa	928.2 ± 1.1
2861.3 kPa	928.1 ± 1.1
2875.3 kPa	928.1 ± 1.1
2892.3 kPa	928.1 ± 1.1
2907 kPa	928.1 ± 1.1
2921.6 kPa	928.2 ± 1.1
2936.8 kPa	928.1 ± 1.1
2955 kPa	928.2 ± 1.1
2969.8 kPa	928.1 ± 1.1
2988.2 kPa	928.2 ± 1.1
3003.6 kPa	928.1 ± 1.1
3019.4 kPa	928.3 ± 1.1
3035.5 kPa	928.4 ± 1.1
3053.7 kPa	928.2 ± 1.1
3070.2 kPa	928.3 ± 1.1
3085.9 kPa	928.2 ± 1.1
3102.6 kPa	928.4 ± 1.1
3121.8 kPa	928.3 ± 1.1
3138.3 kPa	928.4 ± 1.1
3154.9 kPa	928.4 ± 1.1
3175.2 kPa	928.3 ± 1.1
3191.8 kPa	928.3 ± 1.1
3209 kPa	928.3 ± 1.1
3229.6 kPa	928.4 ± 1.1
3247 kPa	928.4 ± 1.1
3264.6 kPa	928.4 ± 1.1
3285.8 kPa	928.4 ± 1.1
3303.6 kPa	928.5 ± 1.1
3321.5 kPa	928.5 ± 1.1
3343 kPa	928.5 ± 1.1
3361.5 kPa	928.6 ± 1.1
3379.9 kPa	928.5 ± 1.1
3398.8 kPa	928.5 ± 1.1
3421.3 kPa	928.5 ± 1.1
3440 kPa	928.4 ± 1.1
3463.2 kPa	928.4 ± 1.1
3482.8 kPa	928.5 ± 1.1
3502.4 kPa	928.4 ± 1.1
3522.3 kPa	928.7 ± 1.1
3542.4 kPa	928.6 ± 1.1
3566.7 kPa	928.7 ± 1.1
3583.3 kPa	928.6 ± 1.1
3608.1 kPa	928.7 ± 1.1
3632.7 kPa	928.7 ± 1.1
3653.7 kPa	928.6 ± 1.1
3674.8 kPa	928.8 ± 1.1
3695.9 kPa	928.7 ± 1.1
3721.9 kPa	928.7 ± 1.1
3743.4 kPa	928.8 ± 1.1
3765.8 kPa	928.7 ± 1.1
3792.8 kPa	928.8 ± 1.1
3815.3 kPa	928.8 ± 1.1
3838 kPa	928.8 ± 1.1
3861 kPa	928.9 ± 1.1
3888.6 kPa	929 ± 1.1
3911.4 kPa	929 ± 1.1
3935 kPa	928.8 ± 1.1
3959.2 kPa	928.9 ± 1.1
3987.5 kPa	929 ± 1.1
4012.2 kPa	929 ± 1.1
4037.5 kPa	928.9 ± 1.1
4064.5 kPa	929 ± 1.1
